A short description of series [1]: Metabolism assay using human liver microsomes. In kind it is in vitro ADME. The note with it: for cleavage of acetyl or trifluoroacetyl group by human liver microsomes: 180 min incubation; for cleavage of acetyl group by human liver microsomes: after 10 min. The protocol:
Human liver microsomes (Life Technologies Gibco cat. # HMMPCL) were thawed on ice and suspended in 100 mM phosphate buffer (pH 7.4) at 0.5 mg/mL. Compounds dissolved in DMSO were then added to the reaction mixture at a final concentration of 5 µM and a final DMSO concentration of 0.1%. Metabolism was initiated by adding 5 mM NADPH and the reactions were incubated at 37 °C in a water bath. Fifty microlitre aliquots of the reaction mixture were taken at various time points and added to 100 µL of cold methanol to terminate the reaction. The time points were centrifuged at 1000 × g for 5 min. Samples were stored at −20 °C until LC/MS analysis.
Using commercially available liver microsomes that contain the full set of endoplasmic reticulum-based metabolic enzymes, including Cyp450s, in an in vitro system the O- and N-dealkylation processes of LB55 were evaluated (Figure 3)[47–48]. Human liver microsomes were purchased from Life Technologies Australia Pty Ltd (catalogue number HMMCPL) and were prepared from a pool of 50 individual male and female donors. The microsomes were diluted into phosphate buffer at pH 7.4 and incubated with LB55 at 37 °C in the presence of the enzyme cofactor NADPH, which initiates the reactions. Aliquots of the reaction mixture were taken at several time points and quenched with cold methanol, which inhibits enzyme activity. The samples were immediately centrifuged at high speed to pellet the microsomes and the supernatants were analysed via LC/MS
However, for simplicity and speed of assessment we opted to identify the removal of the pro-drug moieties using LC/MS in selected-ion mode (SIM). We scanned for specific mass-to-charge ratios (m/z) based on the molecules molecular weight. […] LB55 was incubated with the human liver microsomes for 180 min and samples were taken at 0, 10, 20, 30, 60, 120, and 180 min and analysed via LC/MS in SIM mode. The scanning range was set at m/z 600–800, as this range would capture both the parent LB55 and any demethylated metabolites including LB51 (Figure 3).
Using the same commercially available liver microsomal assay described earlier, we evaluated the removal of acetylated and trifluoroacetylated amino acids. The studies were performed on three amino acids on LB51 that required protecting groups: serine, tyrosine, and lysine (Figure 4).
For orientation: Microsomes from liver hold many membrane-bound enzymes, among them those of drug oxidation.

The test system of series [2] is Hsp90-Cyp40 interaction (C-terminal domain of Hsp90 and full-length Cyp40). Put plainly: AlphaLISA binding assay, Hsp90-Cyp40 interaction. The note with it: for efficacy at inhibiting the binding event between Hsp90 and Cyp40: C-terminal domain of Hsp90 and full-length Cyp40; for IC50: C-terminal domain of Hsp90 and full-length Cyp40, DMSO (1%) = 100% binding, read-out: IC50, inhibition of Hsp90-Cyp40 interaction. As for the experimental part:
The binding assays were performed using an Hsp90 (C-terminal) Inhibitor Screening Kits (cat. 50314 or 50317) purchased from BPS Bioscience. The assay was performed according to the manufacturer's protocol and utilised AlphaLISA® technology (PerkinElmer). The test compounds were dissolved in 100% DMSO and diluted with water to the desired concentration, so that the final dilution was dissolved in 5% DMSO with water. Two microlitres of the dilution was added to a 10 µL reaction so that the final concentration of DMSO was 1% in all reactions. The reactions were conducted at room temperature for 30 min in a 10 µL mixture containing assay buffer, 6 ng (24 nM) of a C-terminal Hsp90β (UniProt P08238, a.a. 527–724) or C-terminal Hsp90α (UniProt P07900, a.a. 535–732), 40 ng (60 nM) Cyp40, and the test compound. Note: for the full-length Hsp90 binding assays, C-terminal Hsp90 was replaced with 24 nM of full-length Hsp90α (Abcam cat # ab48801). After the 30 min incubation, 10 µL of buffer containing 20 µg/mL glutathione acceptor beads (Perkin Elmer) were added to the reaction mix and incubated for 30 min in the dark. Ten microlitres of 40 µg/mL streptavidin donor beads (Perkin Elmer) were then added and the final 30 µL mixture was incubated for 1 h in the dark. The AlphaLISA® signal was measured using a Tecan F200 Pro multimode plate reader.
Modifications to the side chains using the common strategy of O- and N-alkylations were the first prodrugs produced (Figure 2). Compounds LB58, LB56, LB97, and LB55 were all based on the structure of LB51 but contained polar side chains that were masked with methyl moieties (Figure 2). […] However, masking groups often affect the target binding affinity, and evaluation of these molecules in binding assays was required. A biochemical assay using AlphaLISA technology was used to evaluate the efficacy of these molecules in blocking the interaction between Hsp90 and the co-chaperone, Cyp40 (Figure 2). Each compound was incubated at multiple concentrations with the C-terminal domain of Hsp90 and full-length Cyp40. Beads specific for each protein were incubated with the reaction mixture. When the two proteins are bound to each other, the beads for one protein transfer energy to the beads of the other protein, thereby producing a signal. When the binding interaction between the two proteins is inhibited, energy transfer cannot occur, which results in no signal being produced. DMSO (1%) was used as a control, where it represents 100% binding between the two proteins.
The alpha biochemical assay was used to evaluate the efficacy of these two molecules, LB51(Ac)2–Cbz and LB63(Ac)2–Cbz, in blocking the interaction between Hsp90 and the co-chaperone, Cyp40 (Figure 6(A)). Each compound was incubated at multiple concentrations with the C-terminal domain of Hsp90 and full-length Cyp40. DMSO (1%) was used as a negative control to represent 100% binding between the two proteins, and LB51 and LB63 were used as positive controls, inhibiting the binding event. LB51(Ac)2–Cbz was ineffective at inhibiting the interaction between Hsp90 and Cyp40 (Figure 6(a)).

Series [3] concerns Caco-2. The conditions noted are these: cited from earlier work; for apparent permeability Papp: Caco-2 assays.
Series [4] concerns mouse liver. Put plainly: Metabolism assay in a mouse (liver extract, LC/MS). In kind it is in vivo. The conditions noted are these: IP injection 59.4 mg/kg, 1 h. The protocol:
Mice were purchased from Australian BioResources (ABR) (Moss Vale, NSW, Australia) at 7 weeks of age and shipped to a specific pathogen-free facility at UNSW Biological Resources Centre (Sydney, Australia) with 12 h light/dark cycles. Following 1 week of acclimatisation, mice were injected in the intraperitoneal space with LB55 (1.2 mg in 120 µL Milli-Q water). One hour later, mice were euthanised by CO2 asphyxiation and the liver was collected for drug extraction. All mouse experiments were approved by the UNSW Animal Care and Ethics Committee. To extract the compound for LC/MS analysis, the liver tissue was powdered in a mortar and pestle that had been pre-cooled with liquid nitrogen. The tissue was then homogenised in phosphate buffered saline (pH 7.4) by sonication for 2 h. The homogenate was then centrifuged at 800 × g for 10 min at 4 °C before collecting the supernatant. […] The extraction was then centrifuged at 1000 × g for 10 min at 4 °C and subsequently analysed by LC/MS.
The stability of LB55 in a mouse liver was accomplished by treating the mouse with LB55 via intraperitoneal (IP) injection at 59.4 mg/kg for 1 h. […] The mixture was then centrifuged, and the supernatant was analysed via LC/MS in SIM mode, scanning for parent LB55 and any demethylated metabolites including LB51.

Series [5] addresses T1, C-terminal Hsp90β (UniProt P08238, a.a. 527–724) or C-terminal Hsp90α (UniProt P07900, a.a. 535–732) (UniProt P08238). The series can be described thus: AlphaScreen or HTRF; AlphaLISA competition (BPS Bioscience kit): 24 nM C-terminal Hsp90, 60 nM Cyp40 and test compound in 10 µL assay buffer, 1% DMSO, room temperature, 30 min; then glutathione acceptor beads and streptavidin donor beads; DMSO = 100% binding.

Series [6] concerns the target T1, C-terminal Hsp90β. The series is described as above. This is another data set of the same source.
Series [7] deals with C-terminal Hsp90 (His-tagged, competitive binding assay). The series can be described thus: pull-down; competitive binding: C-terminal Hsp90 (100 µM) with LB51-tag (100 µM) 1 h at RT, then untagged compound (0–100 µM) 1 h; captured on NeutrAvidin agarose, 6 washes; Hsp90 detected by Western blot with anti-6×His; DMSO = 100% binding. For orientation: In western blotting, separated proteins are transferred to a membrane and probed.
C-terminal Hsp90 (His-tagged, competitive binding assay), sequence (P08238 527-724): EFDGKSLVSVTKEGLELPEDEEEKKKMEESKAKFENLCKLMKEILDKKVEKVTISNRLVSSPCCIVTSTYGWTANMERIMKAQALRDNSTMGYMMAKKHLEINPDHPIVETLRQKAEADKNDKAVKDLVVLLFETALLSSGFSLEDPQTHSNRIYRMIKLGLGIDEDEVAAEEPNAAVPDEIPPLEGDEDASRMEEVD

What is called IC50 is the midpoint of a concentration-inhibition curve.

Several values for one entry are separate records, joined by “and”; a condition that tells them apart may be missing. Equal entries are not always repeated. Structures can show the parent of a compound that is named as a salt. Where two headings read alike, the source gives them in different places. Square brackets hold non-standard residues; d marks the D form. Peptide text beside a SMILES is read from it. * marks the point of attachment. Lys(Me2) = CN(C)CCCC[C@H](N)C(=O)O; Lys(Me) = CNCCCC[C@H](N)C(=O)O; Cbz = O=C(OCc1ccccc1)*

Consider `CC(=O)NCCCC[C@H](NC(=O)OCC1c2ccccc2-c2ccccc21)C(=O)O`, for which the “cleavage of acetyl or trifluoroacetyl group by human liver microsomes” value in series [1] is reported as “not cleaved”.

As for `O=C(N[C@@H](CCCCNC(=O)C(F)(F)F)C(=O)O)OCC1c2ccccc2-c2ccccc21` [Fmoc-Lys(Tfa)-OH], in series [1], the “cleavage of acetyl or trifluoroacetyl group by human liver microsomes” value is reported as “not cleaved”.

Turning to `CC(=O)OC[C@H](NC(=O)OCC1c2ccccc2-c2ccccc21)C(=O)O` [Fmoc-Ser(Ac)-OH], in series [1], the “cleavage of acetyl group by human liver microsomes” value is on record as “mostly cleaved”.

On to `CC(=O)Oc1ccc(C[C@H](NC(=O)OCC2c3ccccc3-c3ccccc32)C(=O)O)cc1` [Fmoc-Tyr(Ac)-OH], for which the “cleavage of acetyl group by human liver microsomes” value in series [1] is listed as “mostly cleaved”.

Turning to `CC(=O)OC[C@@H]1NC(=O)[C@H](CC(N)=O)NC(=O)[C@H](CCCCNC(=O)OCc2ccccc2)NC(=O)[C@H](Cc2ccccc2)NC(=O)[C@H](Cc2ccc(OC(C)=O)cc2)NC1=O` [LB51(Ac)2–Cbz, cyclo-Phe-Tyr(Ac)-Ser(Ac)-Asn-Lys(Cbz)] (cyclo(K(Cbz)NS(Ac)Y(Ac)F)), the “efficacy at inhibiting the binding event between Hsp90 and Cyp40” value in series [2] is recorded as “ineffective”.

`NCCCC[C@@H]1NC(=O)[C@H](Cc2ccccc2)NC(=O)[C@H](Cc2ccc(O)cc2)NC(=O)[C@H](CO)NC(=O)[C@H](CC(N)=O)NC1=O` [LB51] (cyclo(KNSYF)): the “apparent permeability Papp” value in series [3] was 3.3 ×10⁻⁶ cm/s and 3 ×10⁻⁶ cm/s. In addition, the membrane permeability Papp in series [3] (backbone N-methylation study) was 3 10^-6 cm/s. For the same molecule, in series [2], the “efficacy at inhibiting the binding event between Hsp90 and Cyp40” value is on record as “most effective”; the IC50 was found to be 4 µM.

As for `COC[C@@H]1NC(=O)[C@H](CC(N)=O)NC(=O)[C@H](CCCCN(C)C)NC(=O)[C@H](Cc2ccccc2)NC(=O)[C@H](Cc2ccc(OC)cc2)NC1=O` [LB55] (cyclo([Lys(Me2)]NS(Me)Y(Me)F)), the “apparent permeability Papp” value in series [3] was 5.6 ×10⁻⁶ cm/s. Besides, in series [1] (5 µM, NADPH, 37 °C, 180 min), the “metabolism by human liver microsomes (LC/MS SIM)” value is “no metabolism occurred”. Besides, the “metabolism in mouse liver (LC/MS of liver extract)” value in series [4] is reported as “a small quantity of LB51 is produced”.

As for `CC(=O)OC[C@@H]1NC(=O)[C@H](CC(N)=O)NC(=O)[C@H](CCCCNC(=O)OCc2ccccc2)NC(=O)[C@H](C)NC(=O)[C@H](Cc2ccc(OC(C)=O)cc2)NC1=O` [LB63(Ac)2–Cbz, cyclo-Ala-Tyr(Ac)-Ser(Ac)-Asn-Lys(Cbz)] (cyclo(K(Cbz)NS(Ac)Y(Ac)A)), the IC50 in series [2] is 10 µM.

With `C[C@@H]1NC(=O)[C@H](Cc2ccc(O)cc2)NC(=O)[C@H](CO)NC(=O)[C@H](CC(N)=O)NC(=O)[C@H](CCCCN)NC1=O` [LB63] (cyclo(KNSYA)), the “apparent permeability Papp” value in series [3] is 0.9 ×10⁻⁶ cm/s. In series [2], the half-inhibitory concentration (IC50) is 2 µM.

As for `CNCCCC[C@@H]1NC(=O)[C@H](Cc2ccccc2)NC(=O)[C@H](Cc2ccc(OC)cc2)NC(=O)[C@H](CO)NC(=O)[C@H](CC(N)=O)NC1=O` [LB97] (cyclo([Lys(Me)]NSY(Me)F)), the “apparent permeability Papp” value in series [3] was 1.9 ×10⁻⁶ cm/s. The “efficacy at inhibiting the binding event between Hsp90 and Cyp40” value in series [2] was “most effective”.

With KNSYA (head-to-tail cyclic) [LB63], in series [5], the IC50 was 2 µM.

B1: LB51(Ac)2–Cbz (peptide)
peptide: cyclo(K(Cbz)NS(Ac)Y(Ac)F)
SMILES: CC(=O)OC[C@@H]1NC(=O)[C@H](CC(N)=O)NC(=O)[C@H](CCCCNC(=O)OCc2ccccc2)NC(=O)[C@H](Cc2ccccc2)NC(=O)[C@H](Cc2ccc(OC(C)=O)cc2)NC1=O
B1 showed an IC50 in series [6] of over 10 µM.

B2: LB63(Ac)2–Cbz (peptide)
peptide: cyclo(K(Cbz)NS(Ac)Y(Ac)A)
SMILES: CC(=O)OC[C@@H]1NC(=O)[C@H](CC(N)=O)NC(=O)[C@H](CCCCNC(=O)OCc2ccccc2)NC(=O)[C@H](C)NC(=O)[C@H](Cc2ccc(OC(C)=O)cc2)NC1=O
Take B2: the IC50 in series [5] is 10 µM; in series [7], 20 µM; in series [6], over 10 µM.

Molecule KNSYF (head-to-tail cyclic) [LB51] yielded an IC50 in series [5] of 4 µM.

The values above are taken from publication PMC6407599 (Journal of Enzyme Inhibition and Medicinal Chemistry, 2019).
